From article PMC13360702, “An Agonist/Antagonist Photo‐Switchable Vitamin D Mimetic Enables Bidirectional Optical Control of VDR” (Angewandte Chemie (International Ed. in English), 2026)
Read-outs that look alike come from different tables or passages of the source.

Experiments:
VDR [1] = biological target: T1, VDR (Homo sapiens, UniProt P11473); experiment: Gal4‐VDR hybrid reporter gene assay, agonist mode; type: cell-based; settings: HEK293T cells, mean±S.E.M., n≥3
T1 construct: -CMV-VDR-LBD coding for the hinge region and; expressed in transfected cells; host or cells: HEK293T
T1 sequence (P11473 127-423 limits assumed): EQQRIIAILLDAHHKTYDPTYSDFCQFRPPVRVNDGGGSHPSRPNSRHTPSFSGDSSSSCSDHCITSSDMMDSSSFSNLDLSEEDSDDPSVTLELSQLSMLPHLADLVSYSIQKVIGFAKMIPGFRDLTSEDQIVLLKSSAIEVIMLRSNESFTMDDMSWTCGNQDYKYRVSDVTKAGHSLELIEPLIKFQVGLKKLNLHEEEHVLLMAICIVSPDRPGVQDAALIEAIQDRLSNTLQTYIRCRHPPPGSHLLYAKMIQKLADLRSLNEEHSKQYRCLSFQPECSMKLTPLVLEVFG
Experimental: FIGURE 2 Development and characterization of the light‐activated vitamin D mimetic photo‐vitD (10). (a) Structure activity relationship of photo‐switchable VDR agonists 4–10. Compounds were tested in a cellular Gal4‐VDR hybrid reporter gene assay. Relative activation is normalized to the effect of 2 (1 µM) set as 100% activation. The (Z)‐states of the compounds were maintained with a Cell‐Disco [24] (370 nm). […] Data in agonist (EC50) and antagonist mode (IC50; vs. 0.3 µM 2) are shown for (E)‐ and (Z)‐10. The corresponding dose‐response curves are shown in (d). (b) Predicted binding mode of (E)‐7 (green) in the VDR ligand binding site (pdb ID 4g1d). […] (c) Predicted binding mode of (Z)‐10 (yellow) in the VDR ligand binding site. The altered regiochemistry conveys strong preference for the light‐induced (Z)‐configuration and the extended naphthoic acid motif enables a strong ionic contact to R302. (d) Dose‐response curves of (E)‐ (dark) and (Z)‐10 (370 nm) in the Gal4‐VDR reporter gene assay in agonist (top) and antagonist mode (bottom, with 0.3 µM calcitriol (2)). (Z)‐10 activated VDR; (E)‐10 and (Z)‐10 antagonized VDR activation by 0.3 µM calcitriol (2). (Z)‐10 was maintained with a Cell‐Disco [24] (370 nm). Data are the mean±S.E.M. relative VDR act. vs. 0.3 µM calcitriol (2), n≥3. (e) Activity profile of 10 (1 µM) on nuclear receptors showing exclusive VDR activation by the light‐activated state. 10 was tested in a panel of uniform Gal4‐NR hybrid reporter gene assays. (Z)‐10 was maintained with a Cell‐Disco [24] (370 nm). Data are the mean±SD, n = 3. (f) Representative UV/Vis spectra of 10 as (E)‐ (dark) and (Z)‐states (PSS 365 nm), and after switching back to (E) with 465 nm. (g) (E)/(Z)‐ratios of 10 in the dark‐adapted state, after illumination at 365 nm for 5 min and after switching back from mostly‐(Z) with 465 nm for 5 min. (h) 10 could be rapidly and reversibly switched between the (E)‐ and (Z)‐states over multiple cycles by alternating irradiation at 365 and 465 nm. Absorbance was measured at 351 nm with a 25 µM solution in DMSO, one cycle is 30 sec. […] 10 was pre‐illuminated at 365 nm for 30 min and then kept in the dark. (E)/(Z) ratios were measured by NMR. (j) Binding mode prediction of (E)‐ and (Z)‐10 to the VDR‐antagonist complex 2zxm (residues numbered according to [21]). (Z)‐10 (yellow) forms an agonist‐like binding mode with several polar interactions at both ends of the pocket. (E)‐10 (cyan) is also anchored at the distal end of the pocket by an H‐bond network with R302 and the D176 backbone but due to the (E)‐configuration, the β‐naphthoic acid residue protrudes deeper and the pentan‐3‐ol motif rotates away from H333/H423. Therefore, (E)‐10 lacks stabilizing/activating contacts with the H333/H423 region rationalizing its antagonist properties.
Gal4-hybrid reporter gene assays. Reporter gene assays were performed in HEK293T cells (German Collection of Microorganisms and Cell Culture GmbH, DSMZ) as reported previously using Gal4 -NR LBD fusion receptor plasmids each coding for the hinge region and LBD of the canonical isoform of the respective human nuclear receptor.[7,8] pFR-Luc (Stratagene, La Jolla, CA, USA) served as a reporter plasmid and pRL-SV40 (Promega, Madison, WI, USA) was used for normalization of transfection efficiency and test compound toxicity. Cells were cultured in Dulbecco’s modified Eagle’s medium (DMEM), high glucose supplemented with 10% fetal calf serum (FCS), sodium pyruvate (1 mM), penicillin (100 U/mL), and streptomycin (100 μg/mL) at 37 °C and 5% CO2, and seeded in 96-well plates (3 × 10^4 cells/well). After 24 h, the medium was changed to Opti -MEM without supplements, and cells were transiently transfected using Lipofectamine LTX reagent (Invitrogen, Carlsbad, CA, USA) according to the manufacturer’s protocol. Five hours after transfection, cells were incubated with the test compounds […]

VDR [2] = biological target: T1, VDR; experiment: Gal4‐VDR hybrid reporter gene assay, antagonist mode (vs. 0.3 µM calcitriol (2)); type: cell-based; settings: dark‐adapted (E)‐state; vs. 0.3 µM 2 (calcitriol); read-out: VDR modulation dark (E): IC50 (antagonist mode)
Experimental: (§1) FIGURE 2 Development and characterization of the light‐activated vitamin D mimetic photo‐vitD (10). (a) Structure activity relationship of photo‐switchable VDR agonists 4–10. Compounds were tested in a cellular Gal4‐VDR hybrid reporter gene assay. Relative activation is normalized to the effect of 2 (1 µM) set as 100% activation. The (Z)‐states of the compounds were maintained with a Cell‐Disco [24] (370 nm). […] Data in agonist (EC50) and antagonist mode (IC50; vs. 0.3 µM 2) are shown for (E)‐ and (Z)‐10. The corresponding dose‐response curves are shown in (d). (b) Predicted binding mode of (E)‐7 (green) in the VDR ligand binding site (pdb ID 4g1d). […] (c) Predicted binding mode of (Z)‐10 (yellow) in the VDR ligand binding site. The altered regiochemistry conveys strong preference for the light‐induced (Z)‐configuration and the extended naphthoic acid motif enables a strong ionic contact to R302. (d) Dose‐response curves of (E)‐ (dark) and (Z)‐10 (370 nm) in the Gal4‐VDR reporter gene assay in agonist (top) and antagonist mode (bottom, with 0.3 µM calcitriol (2)). (Z)‐10 activated VDR; (E)‐10 and (Z)‐10 antagonized VDR activation by 0.3 µM calcitriol (2). (Z)‐10 was maintained with a Cell‐Disco [24] (370 nm). […] Absorbance was measured at 351 nm with a 25 µM solution in DMSO, one cycle is 30 sec. […] (E)/(Z) ratios were measured by NMR. […]

[3] = test system: nuclear receptors related to VDR; experiment: panel of uniform Gal4‐NR hybrid reporter gene assays (selectivity); type: cell-based, human; settings: 1 µM; both (E)‐ and (Z)‐configuration; (Z) maintained with Cell‐Disco (370 nm)
Experimental: as §1

[4] = photophysical characterization (photo‐switching, thermal relaxation); type: physicochemical; settings: alternating irradiation at 365 and 465 nm; 25 µM solution in DMSO
Experimental: as §1

EC50 (VDR [1]; (Z)‐state maintained with Cell‐Disco (370 nm), read-out: VDR modulation light-activated (Z): EC50): 170 nM | EC50 (VDR [1]; dark‐adapted (E)‐state, read-out: VDR modulation dark (E): EC50): > 10000 nM | IC50 (VDR [2]): 600 ± 100 nM | reversible switching between (E)‐ and (Z)‐states over multiple cycles [4]: no fatigue
Compound: CCCc1cc(C(O)(CC)CC)ccc1-c1ccc(/N=N/c2ccc3cc(C(=O)O)ccc3c2)cc1C [compound 10]
activity on nuclear receptors related to VDR [3]: no activity
